Article PMC4805166, “Synthetic Cyclolipopeptides Selective against Microbial, Plant and Animal Cell Targets by Incorporation of D-Amino Acids or Histidine” (PLoS ONE, 2016)
Where a SMILES comes first, the peptide text is derived from it. Side-chain parts run from the residue outwards. [ ]: non-standard residue; d: D form. The star is where a group is joined. Pentanoyl(4-Me) = CC(C)CCC(=O)*; Hexanoyl = CCCCCC(=O)*; Butyryl = CCCC(=O)*

Tests used:
[1] = tested on: Pseudomonas syringae pv. syringae EPS94; type: cell-based; conditions: 48 h
Method in brief: (§1)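 Peptide dilutions (stocks 500–31.1 μM) mixed 1:10 with 10^8 CFU/mL bacterial suspension in TSB. Incubated 25 °C, OD600 read hourly for 48 h, triplicates, repeated twice. MIC: lowest concentration with no growth at end.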

[2] = tested on: Xanthomonas axonopodis pv. vesicatoria 2133–2; type: cell-based; conditions: TSB, 25°C, 48 h, OD 600 nm; tested at 3.1, 6.2, 12.5, 25, 50 μM; three replicates, experiment repeated twice; MIC = lowest concentration with no growth
Method in brief: as §1

[3] = tested on: Erwinia amylovora PMV6076; assay: MIC, in vitro growth inhibition; type: cell-based; conditions: TSB, 25°C, 48 h, OD 600 nm; tested at 3.1, 6.2, 12.5, 25, 50 μM; three replicates, experiment repeated twice; MIC = lowest concentration with no growth
Method in brief: as §1

[4] = tested on: Fusarium oxysporum f. sp. lycopersici FOL 3 race 2; assay: MIC, antifungal growth inhibition; type: cell-based; conditions: PDB with 0.003% chloramphenicol, 20°C, seven days, OD 600 nm; tested at 3.1, 6.2, 12.5, 25, 50 μM; three replicates, repeated twice
Method in brief: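 Microconidia are grown on PDA at 25 °C and adjusted to 10^4 conidia/mL. Peptide stocks of 500, 250, 125, 62.5 and 31.1 µM (stock, not final) are mixed with conidia in double-concentrated PDB with 0.003% chloramphenicol, in triplicate, and incubated at 20 °C. OD600 is read every 2 h for seven days, and MIC is the lowest concentration with no growth at the end.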

[5] = tested on: erythrocyte suspensions of horse blood; conditions: horse erythrocytes 5% vol/vol, TRIS buffer pH 7.2, 1 h at 37°C, absorbance 540 nm, relative to melittin 100 μM, ± confidence interval (α = 0.05); for Hemolysis (%) 150 µM: 150 µM peptide; for Hemolysis (%) 250 µM: 250 µM peptide;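 on all read-outs here: Read-out is hemoglobin release into the supernatant, with a buffer-only blank subtracted as the 0% baseline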
Protocol: Blood was centrifuged at 6000g for 5 min, washed three times with TRIS buffer (10 mM TRIS, 150 mM NaCl, pH 7.2) and diluted.
Compounds were solubilized in TRIS buffer and mixed with horse erythrocytes and the final concentrations tested were 250 and 150 μM. The mixture was incubated under continuous shaking for 1 h at 37°C. Then, the tubes were centrifuged at 3500g for 10 min, 80 μL aliquots of the supernatant transferred to 100-well microplates (Bioscreen), diluted with 80 μL water, and the absorbance measured at 540 nm (Bioscreen). Complete hemolysis was obtained by the addition of melittin at 100 μM (Sigma-Aldrich Corporation, Madrid, Spain). The percentage of hemolysis (H) was calculated using the equation: H = 100×[(Op−Ob)/(Om−Ob)], where Op was the density for a given compound concentration, Ob for the buffer, and Om for the melittin positive control.

[6] = tested on: E. amylovora, P. syringae pv. syringae, X. axonopodis pv. vesicatoria and F. oxysporum; type: cell-based; conditions: for MIC values over the pathogens tested: span of MIC values over the four pathogens; for Antimicrobial activity, in words: authors' overall judgement over the pathogens tested
Protocol: The following plant pathogenic bacterial strains were used: Erwinia amylovora PMV6076 (Institut National de la Recherche Agronomique, Angers, France), Pseudomonas syringae pv. syringae EPS94 (Institut de Tecnologia Agroalimentària, Universitat de Girona, Spain) and Xanthomonas axonopodis pv. vesicatoria 2133–2 (Instituto Valenciano de Investigaciones Agrarias, Valencia, Spain). All bacteria were stored in Luria Bertani (LB) broth supplemented with glycerol (20%) and maintained at -80°C. Bacteria were scrapped from LB agar after growing for 24–48 h at 25°C. The cell material was suspended in sterile water to obtain a suspension of 10^8 CFU mL^-1.
Fusarium oxysporum f. sp. lycopersici FOL 3 race 2 (ATCC 201829, American Type Culture Collection) was used as fungal pathogen. The strain was cultured on potato dextrose agar (PDA) plates (Difco) and microconidia were obtained after growth at 25°C. The concentration of conidia was determined using a hemacytometer and adjusted to 10^4 conidia mL^-1.
Lyophilized peptides were solubilized in sterile Milli-Q water to a final concentration of 1 mM and filter sterilized through a 0.22-μm pore filter. For minimum inhibitory concentration (MIC) assessment, dilutions of the compounds were made to obtain a stock concentration of […]. For antibacterial activity twenty microlitres of each dilution were mixed in a microtiter plate well with 20 μL of the corresponding suspension of the bacterial indicator, 160 μL of Trypticase Soy Broth (TSB) (BioMèrieux, France) to a total volume of 200 μL. For antifungal activity 20 μL of each stock solution were mixed in a microtiter plate well with 80 μL of the corresponding suspension of the fungal pathogen and 100 μL of double concentrated PDB to a total volume of 200 μL containing 0.003% w/v of choramphenicol.
Three replicates for each strain, compound and concentration were used. Microbial growth was determined by optical density measurement at 600 nm (Bioscreen C, Labsystem, Helsinki, Finland). For antibacterial activity microplates were incubated at 25°C with 20 sec shaking before hourly absorbance measurement for 48 h. For antifungal activity microplates were incubated at 20°C with 1 min shaking before absorbance measurement that were done every two hours during seven days. The experiment was repeated twice. The MIC was taken as the lowest compound concentration with no growth at the end of the experiment.

[7] = tested on: X. axonopodis pv. vesicatoria; assay: Bactericidal activity (killing assay); type: cell-based, Xanthomonas axonopodis pv. vesicatoria; conditions: 5 μM peptide, LB broth, aliquots every 30 min during 3 h, viable counts; triplicates
Protocol: In a total volume of 5 mL, 4 mL of Luria-Bertani (LB) broth were mixed with 0.5 ml of a suspension of X. axonopodis pv. vesicatoria adjusted to 10^8 CFU mL^-1 and 0.5 mL of the peptide solution at 50 μM (final concentration at 5 μM). Aliquots of 500 μL were removed at 30-min intervals during 3 h and the appropriate dilutions were spread onto LB agar using a spiral plater (Eddy Jet; IUL instruments, Spain). Triplicates were performed and colonies were counted after 48 h of incubation at 25°C with an automatic counter (Flash and Go; IUL instruments, Spain) by incorporating the software CounterMat version 5.0.

SMILES	MIC Pss [1]	MIC Xav [2]	MIC Ea [3]	MIC Fo [4]	Hemolysis (%) 150 µM [5]	MIC values over the pathogens tested [6]	MIC against three pathogens ([6]; three of the four pathogens tested)	Hemolysis (%) 250 µM [5]	Antimicrobial activity, in words [6]	Bactericidal activity (kinetics of survival) [7]
CCCCCC(=O)NCCCC[C@@H]1NC(=O)[C@H](CCCCN)NC(=O)[C@H](CC(C)C)NC(=O)[C@H](CCCCN)NC(=O)[C@H](CCCCN)NC(=O)[C@H](CCC(N)=O)NC(=O)[C@H](CC(C)C)NC(=O)[C@H](CCCCN)NC(=O)[C@H](CCCCN)NC(=O)[C@H](Cc2ccccc2)NC1=O [BPC528, c(KKLKK(CO-nC5H11)FKKLQ)] (cyclo(FKKLQKKLKK(Hexanoyl)))	6.2 to 12.5 µM	3.1 to 6.2 µM	12.5 to 25 µM	6.2 to 12.5 µM	98 ± 7%	3.1 to 25 µM	< 12.5 µM			
CCCCCC(=O)NCCCC[C@@H]1NC(=O)[C@H](CCCCN)NC(=O)[C@H](CCC(N)=O)NC(=O)[C@H](CC(C)C)NC(=O)[C@H](CCCCN)NC(=O)[C@H](CCCCN)NC(=O)[C@H](Cc2ccccc2)NC(=O)[C@H](CCCCN)NC(=O)[C@H](CCCCN)NC(=O)[C@H](CC(C)C)NC1=O [BPC588] (cyclo(FKKLQKK(Hexanoyl)LKK))	6.2 to 12.5 µM	3.1 to 6.2 µM	12.5 to 25 µM	6.2 to 12.5 µM	95 ± 4%	3.1 to 25 µM				
CCCCCC(=O)NCCCC[C@@H]1NC(=O)[C@H](CCC(N)=O)NC(=O)[C@H](CC(C)C)NC(=O)[C@H](CCCCN)NC(=O)[C@H](CCCCN)NC(=O)[C@H](Cc2ccccc2)NC(=O)[C@H](CCCCN)NC(=O)[C@H](CCCCN)NC(=O)[C@H](CC(C)C)NC(=O)[C@H](CCCCN)NC1=O [BPC590] (cyclo(FKKLQK(Hexanoyl)KLKK))	6.2 to 12.5 µM	3.1 to 6.2 µM	6.2 to 12.5 µM	12.5 to 25 µM	100 ± 9%	3.1 to 25 µM				
CCCCCC(=O)N[C@@H](CCCCN)C(=O)N[C@@H](CC(C)C)C(=O)NCCCC[C@@H]1NC(=O)[C@H](CCCCN)NC(=O)[C@H](CC(C)C)NC(=O)[C@H](CCCCN)NC(=O)[C@H](CCCCN)NC(=O)[C@H](CCC(N)=O)NC(=O)[C@H](CC(C)C)NC(=O)[C@H](CCCCN)NC(=O)[C@H](CCCCN)NC(=O)[C@H](Cc2ccccc2)NC1=O [BPC596, c(KKLKK(LK-CO-nC5H11)FKKLQ)] (cyclo(FKKLQKKLKK([Leu-Lys-Hexanoyl])))	6.2 to 12.5 µM	<3.1 µM	12.5 to 25 µM	12.5 to 25 µM	93 ± 5%			100 ± 11%	important antimicrobial activity	
CCCCCC(=O)NCCCC[C@H]1NC(=O)[C@H](CCCCN)NC(=O)[C@H](CC(C)C)NC(=O)[C@H](CCCCN)NC(=O)[C@H](CCCCN)NC(=O)[C@H](CCC(N)=O)NC(=O)[C@H](CC(C)C)NC(=O)[C@H](CCCCN)NC(=O)[C@H](CCCCN)NC(=O)[C@@H](Cc2ccccc2)NC1=O [BPC632, c(KKLKk(CO-nC5H11)fKKLQ)] (cyclo(KKLK[dK](Hexanoyl)[dF]KKLQ))	12.5 to 25 µM	25 to 50 µM	25 to 50 µM	12.5 to 25 µM	21 ± 13%			22 ± 10%	low active	
CC(C)CCC(=O)NCCCC[C@H]1NC(=O)[C@H](CCCCN)NC(=O)[C@H](CC(C)C)NC(=O)[C@H](CCCCN)NC(=O)[C@H](CCCCN)NC(=O)[C@H](CCC(N)=O)NC(=O)[C@H](CC(C)C)NC(=O)[C@H](CCCCN)NC(=O)[C@H](CCCCN)NC(=O)[C@@H](Cc2ccccc2)NC1=O [BPC634, c(KKLKk(CO-isoC5H11)fKKLQ)] (cyclo(KKLK[dK](Pentanoyl(4-Me))[dF]KKLQ))	12.5 to 25 µM	25 to 50 µM	>50 µM	6.2 to 12.5 µM	7 ± 1%			17 ± 8%	low active	
CCCCCC(=O)N[C@@H](CCCCN)C(=O)N[C@@H](CC(C)C)C(=O)NCCCC[C@@H]1NC(=O)[C@H](CCCCN)NC(=O)[C@H](CC(C)C)NC(=O)[C@H](CCCCN)NC(=O)[C@H](CCCCN)NC(=O)[C@H](CCC(N)=O)NC(=O)[C@H](CC(C)C)NC(=O)[C@H](CCCCN)NC(=O)[C@H](CCCCN)NC(=O)[C@H](Cc2c[nH]cn2)NC1=O [BPC676, c(KKLKK(LK-CO-nC5H11)HKKLQ)] (cyclo(HKKLQKKLKK([Leu-Lys-Hexanoyl])))	12.5 to 25 µM	6.2 to 12.5 µM	25 to 50 µM	3.1 to 6.2 µM	3 ± 0.3%					bactericidal activity
CCCCCC(=O)NCCCC[C@@H]1NC(=O)[C@H](CCC(N)=O)NC(=O)[C@H](CC(C)C)NC(=O)[C@H](CCCCN)NC(=O)[C@H](CCCCN)NC(=O)[C@@H](Cc2ccccc2)NC(=O)[C@H](CCCCN)NC(=O)[C@H](CCCCN)NC(=O)[C@H](CC(C)C)NC(=O)[C@H](CCCCN)NC1=O [BPC686, c(K(CO-nC5H11)KLKKfKKLQ)] (cyclo(K(Hexanoyl)KLKK[dF]KKLQ))	12.5 to 25 µM	6.2 to 12.5 µM	25 to 50 µM	12.5 to 25 µM	10 ± 0.2%			14 ± 0.4%		bactericidal activity
CCCC(=O)NCCCC[C@@H]1NC(=O)[C@H](CCCCN)NC(=O)[C@H](CCC(N)=O)NC(=O)[C@H](CC(C)C)NC(=O)[C@H](CCCCN)NC(=O)[C@H](CCCCN)NC(=O)[C@H](Cc2ccccc2)NC(=O)[C@H](CCCCN)NC(=O)[C@H](CCCCN)NC(=O)[C@H](CC(C)C)NC1=O [BPC708] (cyclo(FKKLQKK(Butyryl)LKK))	12.5 to 25 µM	6.2 to 12.5 µM	25 to 50 µM	3.1 to 6.2 µM	2 ± 0.5%			3 ± 1%	active	
CCCC(=O)NCCCC[C@@H]1NC(=O)[C@H](CCCCN)NC(=O)[C@H](CCC(N)=O)NC(=O)[C@H](CC(C)C)NC(=O)[C@H](CCCCN)NC(=O)[C@H](CCCCN)NC(=O)[C@@H](Cc2ccccc2)NC(=O)[C@H](CCCCN)NC(=O)[C@H](CCCCN)NC(=O)[C@H](CC(C)C)NC1=O [BPC714, c(KK(CO-C3H7)LKKfKKLQ)] (cyclo(KK(Butyryl)LKK[dF]KKLQ))	25 to 50 µM	12.5 to 25 µM	25 to 50 µM	6.2 to 12.5 µM	3 ± 1%			3 ± 0.5%		bactericidal activity
